Data set [1] in a line: In vitro cytotoxicity, normal cells HL-7702. To be noted: human. As to the method: (§1) Assays were performed in triplicate on three independent experiments.
Data set [2] deals with A875 (Human melanoma cell line). The data set is described as follows: MTT in vitro cytotoxicity, A875. Conditions: A875, 72 h, read-out: In vitro cytotoxicity IC50.
Method: (§2) After removal of the growth medium, six serial dilutions of each tested compound in 200 µL test medium were added. Plates were incubated at 37 °C in a humidified atmosphere containing 5% CO2. After 72 h of exposure, the culture medium was removed and 30 µL of the MTT solution (5 mg/mL in PBS) was added to each well. The plate was further incubated for 4 h to allow MTT formazan formation. To dissolve the resulting MTT formazan, 50 µL of DMSO was added to each well, followed by thorough mixing with a microplate shaker. Absorbance at 570 nm was measured on a microplate reader (Thermo Scientific, MK3). […] Assays were performed in triplicate on three independent experiments.
In data set [3] the test system is SGC-7901 (Human gastric cancer cell line). As to the kind of experiment: MTT in vitro cytotoxicity, SGC-7901. To be noted: SGC-7901, 72 h, read-out: In vitro cytotoxicity IC50.
Method: as §2
In data set [4] the test system is HepG2 (Human hepatocellular liver carcinoma cell line). As to the kind of experiment: MTT in vitro cytotoxicity, HepG2. Conditions: HepG2, 72 h, read-out: In vitro cytotoxicity IC50.
Method: as §2
The subject of data set [5] is SGC-7901, A875 and HepG2 cell lines. As to the kind of experiment: MTT in vitro cytotoxicity, tested cancer cell lines together. To be noted: for IC50: Homo sapiens, span over SGC-7901, A875, HepG2, read-out: range of IC50 value over the tested cancer cell lines; for dose-response of cell growth inhibition: SGC-7901, A875 and HepG2, Figure 4. It is filed as cell-based, human. As to the method:
as §1

Consider `C[C@]12CC[C@@H](O)C[C@@H]1CC[C@@H]1[C@@H]2CC[C@]2(C)C(=O)CC[C@@H]12` [Androsterone], for which the IC50 in data set [1], in data set [2], in data set [3] and in data set [4] was more than 100 µM throughout.

As for `C[C@]12CC[C@@H](O)C[C@@H]1CC[C@@H]1[C@@H]2CC[C@]2(C)C(=NN=C3C(=O)Nc4ccc(Br)cc43)CC[C@@H]12` [6d, 5-Bromo-3-(((3R,5S,8R,9S,10S,13S,14S)-3-hydroxy-10,13-dimethyldodecahydro-1H-cyclopenta[a]phenanthren-17(2H,10H,14H)-ylidene)hydrazono)indolin-2-one], the IC50 in data set [1] amounted to 4.4 ± 0.68 µM; in data set [2] it was 8.08 ± 0.51 µM; in data set [3] it was 7.14 ± 1.41 µM; in data set [4] it was 6.1 ± 2.09 µM.

On to `C[C@]12CC[C@@H](O)C[C@@H]1CC[C@@H]1[C@@H]2CC[C@]2(C)C(=NN=C3C(=O)Nc4ccc(F)cc43)CC[C@@H]12` [6b, 5-Fluoro-3-(((3R,5S,8R,9S,10S,13S,14S)-3-hydroxy-10,13-dimethyldodecahydro-1H-cyclopenta[a]phenanthren-17(2H,10H,14H)-ylidene)hydrazono)indolin-2-one], for which the IC50 in data set [1] was 7.09 ± 1.57 µM; in data set [2], 42.2 ± 8.19 µM; in data set [3] it was 9.51 ± 0.49 µM; in data set [4] it was 32.3 ± 4.21 µM.

Turning to `C[C@]12CC[C@@H](O)C[C@@H]1CC[C@@H]1[C@@H]2CC[C@]2(C)C(=NN=C3C(=O)Nc4cc(F)ccc43)CC[C@@H]12` [6h, 6-Fluoro-3-(((3R,5S,8R,9S,10S,13S,14S)-3-hydroxy-10,13-dimethyldodecahydro-1H-cyclopenta[a]phenanthren-17(2H,10H,14H)-ylidene)hydrazono)indolin-2-one], the IC50 was 12.8 ± 2.79 µM in data set [1], 7.71 ± 2.13 µM in data set [2], 9.2 ± 1.68 µM in data set [3] and 5.41 ± 1.44 µM in data set [4].

Take `C[C@]12CC[C@H](O)CC1CC[C@@H]1[C@@H]2CC[C@]2(C)C(=NN=C3C(=O)Nc4cc(F)ccc43)CC[C@@H]12` (stereo partly drawn) [3h, 6-Fluoro-3-(((3S,8R,9S,10S,13S,14S)-3-hydroxy-10,13-dimethyldodecahydro-1H-cyclopenta[a]phenanthren-17(2H,10H,14H)-ylidene)hydrazono)indolin-2-one]: the IC50 in data set [1] was 7.87 ± 2.04 µM; in data set [2] it was 6.85 ± 1.99 µM; in data set [3], 7.22 ± 1.17 µM; in data set [4] it was 4.85 ± 0.84 µM.

Take `C[C@]12CC[C@@H](O)C[C@@H]1CC[C@@H]1[C@@H]2CC[C@]2(C)C(=NN=C3C(=O)Nc4ccccc43)CC[C@@H]12` [6a, 3-(((3R,5S,8R,9S,10S,13S,14S)-3-Hydroxy-10,13-dimethyldodecahydro-1H-cyclopenta[a]phenanthren-17(2H,10H,14H)-ylidene)hydrazono)indolin-2-one]: the IC50 in data set [1] amounted to 8.29 ± 2.24 µM; in data set [2] it was 21.7 ± 4.82 µM; in data set [3] it was 13.8 ± 2.65 µM; in data set [4] it was 20.4 ± 6.69 µM.

As for `C[C@]12CC[C@H](O)CC1CC[C@@H]1[C@@H]2CC[C@]2(C)C(=NN=C3C(=O)Nc4ccccc43)CC[C@@H]12` (stereo partly drawn) [3a, 3-(((3S,8R,9S,10S,13S,14S)-3-Hydroxy-10,13-dimethyldodecahydro-1H-cyclopenta[a]phenanthren-17(2H,10H,14H)-ylidene)hydrazono)indolin-2-one], the IC50 in data set [1] is 5.65 ± 1.59 µM; in data set [2], 9.51 ± 1.34 µM; in data set [3] it was 7.69 ± 2.54 µM; in data set [4], 6.72 ± 1.59 µM.

Take `C[C@]12CC[C@H](O)CC1CC[C@@H]1[C@@H]2CC[C@]2(C)C(=NN=C3C(=O)Nc4ccc(I)cc43)CC[C@@H]12` (stereo partly drawn) [3e, 3-(((3S,8R,9S,10S,13S,14S)-3-Hydroxy-10,13-dimethyldodecahydro-1H-cyclopenta[a]phenanthren-17(2H,10H,14H)-ylidene)hydrazono)-5-iodoindolin-2-one]: the IC50 in data set [1] was determined as 14 ± 2.83 µM; in data set [2], 23.8 ± 4.39 µM; in data set [3], 21.7 ± 3.86 µM; in data set [4], 18.6 ± 4.79 µM.

As for `C[C@]12CC[C@@H](O)C[C@@H]1CC[C@@H]1[C@@H]2CC[C@]2(C)C(=NN=C3C(=O)Nc4ccc(I)cc43)CC[C@@H]12` [6e, 3-(((3R,5S,8R,9S,10S,13S,14S)-3-Hydroxy-10,13-dimethyldodecahydro-1H-cyclopenta[a]phenanthren-17(2H,10H,14H)-ylidene)hydrazono)-5-iodoindolin-2-one], the IC50 in data set [1] is 18.5 ± 1 µM; in data set [2], 19.7 ± 1.89 µM; in data set [3] it was 17.1 ± 3.68 µM; in data set [4], 8.99 ± 3.13 µM; in data set [5], 8 to 20 µM.

Turning to `C[C@]12CC[C@H](O)CC1CC[C@@H]1[C@@H]2CC[C@]2(C)C(=NN=C3C(=O)Nc4ccc([N+](=O)[O-])cc43)CC[C@@H]12` (stereo partly drawn) [3g, 3-(((3S,8R,9S,10S,13S,14S)-3-Hydroxy-10,13-dimethyldodecahydro-1H-cyclopenta[a]phenanthren-17(2H,10H,14H)-ylidene)hydrazono)-5-nitroindolin-2-one], the IC50 in data set [1] came to 33.4 ± 6.15 µM; in data set [2] it was 26.2 ± 4.59 µM; in data set [3], 11.9 ± 2.45 µM; in data set [4], 19.4 ± 3.37 µM.

Take `C[C@]12CC[C@H](O)CC1CC[C@@H]1[C@@H]2CC[C@]2(C)C(=NN=C3C(=O)Nc4ccc(Br)cc43)CC[C@@H]12` (stereo partly drawn) [3d, 5-Bromo-3-(((3S,8R,9S,10S,13S,14S)-3-hydroxy-10,13-dimethyldodecahydro-1H-cyclopenta[a]phenanthren-17(2H,10H,14H)-ylidene)hydrazono)indolin-2-one]: the IC50 in data set [1] came out at 14.1 ± 3.79 µM; in data set [2], 11.6 ± 2.84 µM; in data set [3] it was 8.43 ± 2.23 µM; in data set [4] it was 8.29 ± 2.41 µM.

As to `C[C@]12CC[C@H](O)C[C@@H]1CC[C@@H]1[C@@H]2CC[C@]2(C)C(=O)CC[C@@H]12` [Epiandrosterone], the IC50 in data set [1] came to 91.2 ± 12.3 µM; in data set [2] it was 63.6 ± 13.2 µM; in data set [3], 69.8 ± 8.47 µM; in data set [4] it was 36.7 ± 10.6 µM.

For the molecule `O=c1[nH]cc(F)c(=O)[nH]1` [5-FU, 5-Fluorouracil, reference compound], the IC50 in data set [1] (HL-7702 normal liver cells) turned out to be 86 ± 9.61 µM; in data set [2], 65.3 ± 7.3 µM; in data set [3] it was 62 ± 8.38 µM; in data set [4], 63.2 ± 12.6 µM.

On to `C[C@]12CC[C@@H](O)C[C@@H]1CC[C@@H]1[C@@H]2CC[C@]2(C)C(=NN=C3C(=O)Nc4ccc(Cl)cc43)CC[C@@H]12` [6c, 5-Chloro-3-(((3R,5S,8R,9S,10S,13S,14S)-3-hydroxy-10,13-dimethyldodecahydro-1H-cyclopenta[a]phenanthren-17(2H,10H,14H)-ylidene)hydrazono)indolin-2-one], for which the IC50 in data set [1] worked out at 6.36 ± 1.37 µM; in data set [2] it was 8.78 ± 0.64 µM; in data set [3], 6.83 ± 2.01 µM; in data set [4], 4.84 ± 1.05 µM. Moreover, in data set [5], the “dose-response of cell growth inhibition” value is “dose-dependent manner”.

Take `C[C@]12CC[C@@H](O)C[C@@H]1CC[C@@H]1[C@@H]2CC[C@]2(C)C(=NN=C3C(=O)Nc4ccc([N+](=O)[O-])cc43)CC[C@@H]12` [6g, 3-(((3R,5S,8R,9S,10S,13S,14S)-3-Hydroxy-10,13-dimethyldodecahydro-1H-cyclopenta[a]phenanthren-17(2H,10H,14H)-ylidene)hydrazono)-5-nitroindolin-2-one]: the IC50 in data set [1] is 11.2 ± 3.05 µM; in data set [2] it was 3.85 ± 1.44 µM; in data set [3], 6.4 ± 1.74 µM; in data set [4] it was 4.31 ± 0.92 µM; in data set [5], 3.85 to 6.4 µM. Also, in data set [5], the “dose-response of cell growth inhibition” value was “dose-dependent manner”.

Take `C[C@]12CC[C@H](O)CC1CC[C@@H]1[C@@H]2CC[C@]2(C)C(=NN=C3C(=O)Nc4ccc(F)cc43)CC[C@@H]12` (stereo partly drawn) [3b, 5-Fluoro-3-(((3S,8R,9S,10S,13S,14S)-3-hydroxy-10,13-dimethyldodecahydro-1H-cyclopenta[a]phenanthren-17(2H,10H,14H)-ylidene)hydrazono)indolin-2-one]: the half-inhibitory concentration (IC50) in data set [1] was 5.49 ± 1.33 µM; in data set [2], 8.58 ± 1.64 µM; in data set [3] it was 6.67 ± 1.77 µM; in data set [4] it was 6.12 ± 1.79 µM. The “dose-response of cell growth inhibition” value in data set [5] is “dose-dependent manner”.

Consider `Cc1ccc2c(c1)C(=NN=C1CC[C@H]3[C@@H]4CCC5C[C@@H](O)CC[C@]5(C)[C@H]4CC[C@]13C)C(=O)N2` (stereo partly drawn) [3f, 3-(((3S,8R,9S,10S,13S,14S)-3-Hydroxy-10,13-dimethyldodecahydro-1H-cyclopenta[a]phenanthren-17(2H,10H,14H)-ylidene)hydrazono)-5-methylindolin-2-one], for which the IC50 was 6.08 ± 0.54 µM in data set [1], 6.01 ± 1.95 µM in data set [2], 7.06 ± 1.27 µM in data set [3] and 6.91 ± 0.58 µM in data set [4].

Regarding `Cc1ccc2c(c1)C(=NN=C1CC[C@H]3[C@@H]4CC[C@H]5C[C@H](O)CC[C@]5(C)[C@H]4CC[C@]13C)C(=O)N2` [6f, 3-(((3R,5S,8R,9S,10S,13S,14S)-3-Hydroxy-10,13-dimethyldodecahydro-1H-cyclopenta[a]phenanthren-17(2H,10H,14H)-ylidene)hydrazono)-5-methylindolin-2-one], the IC50 came out at 12.5 ± 4.36 µM in data set [1], 8.25 ± 1.97 µM in data set [2], 9.12 ± 1.61 µM in data set [3] and 4.85 ± 1.07 µM in data set [4].

On to `C[C@]12CC[C@H](O)CC1CC[C@@H]1[C@@H]2CC[C@]2(C)C(=NN=C3C(=O)Nc4ccc(Cl)cc43)CC[C@@H]12` (stereo partly drawn) [3c, 5-Chloro-3-(((3S,8R,9S,10S,13S,14S)-3-hydroxy-10,13-dimethyldodecahydro-1H-cyclopenta[a]phenanthren-17(2H,10H,14H)-ylidene)hydrazono)indolin-2-one], for which the IC50 worked out at 5.01 ± 1.37 µM in data set [1], 7.92 ± 1.95 µM in data set [2], 4.92 ± 1.13 µM in data set [3] and 2.39 ± 0.36 µM in data set [4]. In addition, in data set [5], the “dose-response of cell growth inhibition” value is reported as “dose-dependent manner”.

Usually IC50 stands for the concentration needed to halve the response being measured.

(Values after article PMC6735358, “Synthesis and bioevaluation of novel steroidal isatin conjugates derived from epiandrosterone/androsterone” (Journal of Enzyme Inhibition and Medicinal Chemistry, 2019).)
